Data as given in ChEMBL document CHEMBL1201862, “PubChem BioAssay data set” (2004).
Where “and” joins values, the source holds several entries; their conditions need not be identical. Equal entries are not always repeated. Calls of active or inactive are those of the source.

Key:
[1] = HepG2 cell cytotoxicity, dose response, cytotoxicity control, cherry-picks, set 5 (AID 1053118); assay type: functional, cell-based
[2] = HEK293 cell cytotoxicity, dose response, cytotoxicity control, cherry-picks, set 5 (AID 1053117); assay type: functional, cell-based
[3] = A549 cell cytotoxicity, dose response, cytotoxicity control, cherry-picks, 26 µM top dose (AID 1053119); assay type: functional, cell-based
[4] = inhibitors of HIV Env-driven cell fusion, dose response, cherry-pick (AID 652057); assay type: functional, cell-based
[5] = inhibitors of clade B AD8 Env fusion, dose response, cell-based, cherry-pick (AID 652062); assay type: functional;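 also: luciferase signal from cell-cell fusion driven by HIV-1 clade B AD8 Env; potency is for inhibitors of fusion seen as a drop in luminescence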
[6] = HIV Env cell-cell fusion inhibitors, dose response, HIV entry, plate reader, dry powder (AID 687023); assay type: functional, cell-based
[7] = NIH/3T3 fibroblast cytotoxicity, dose response, cytotoxicity control, cell-based, plate reader, dry powder, set 2 (AID 652280); assay type: functional; conditions: NIH3T3
[8] = T. cruzi growth inhibition in host cells, dose response, cell-based, plate reader, dry powder, set 2 (AID 652275); assay type: functional
[9] = TRPM1 promoter luciferase reporter signal decrease, dose response, MITF inhibitor project, cell-based, SK-MEL-5, dry powder, set 9 (AID 651588); assay type: functional
[10] = MITF Orthogonal Assay: MALME3 CTG Assay Measured in Cell-Based System Using Plate Reader - 2084-04_Inhibitor_Dose_DryPowder_Activity_Set6.; assay type: functional; conditions: MALME-3
[11] = SK-MEL-5 parental cell viability reduction, dose response, orthogonal assay for MITF inhibitor project, CellTiter-Glo luminescence, dry powder, set 8 (AID 651586); assay type: functional, cell-based
[12] = MALME3 melanoma cell viability reduction, dose response, orthogonal assay for MITF inhibitor project, CellTiter-Glo luminescence, dry powder, set 5 (AID 651584); assay type: functional, cell-based; conditions: MALME-3
[13] = MITF Orthogonal Assay: SK-MEL-5 CTG Assay Measured in Cell-Based System Using Plate Reader - 2084-02_Inhibitor_Dose_DryPowder_Activity_Set7.; assay type: functional
[14] = MITF: Counter assay: A375 proliferation Measured in Cell-Based System Using Plate Reader - 2084-03_Inhibitor_Dose_DryPowder_Activity_Set8.; assay type: functional; conditions: A-375
[15] = A375 melanoma cell viability loss, dose response, counter-screen for MITF modulator project, CellTiter-Glo luminescence, dry powder, set 9 (AID 651591); assay type: functional, cell-based; conditions: A-375
[16] = TRPM1 promoter luciferase reporter signal decrease, dose response, MITF inhibitor project, cell-based, SK-MEL-5, dry powder, set 8 (AID 624430); assay type: functional
[17] = cytotoxicity in primary human melanocytes, dose response, cytotoxicity control, cell-based, plate reader, dry powder (AID 651920); assay type: functional
[18] = biological target: NS3 (Hepatitis C virus, UniProt A3EZJ3); experiment: HCV NS3 helicase inhibitor potency, dose response, biochemical, fluorescence polarization, ChemBridge library (AID 743264)
[19] = Late stage assay provider results from the probe development effort to identify inhibitors of the Plasmodium falciparum M18 Aspartyl Aminopeptidase (M18AAP): radiolabel-based cell-based dose response assay to identify compounds that inhibit P. falciparum growth in RBCs, Set 2..; assay type: functional
[20] = A Cell-Based Confirmatory Screen for Compounds that Inhibit VEEV, TC-83 (8).; assay type: functional
[21] = A Cell-Based Confirmatory Screen for Compounds that Inhibit VEEV, TC-83 (7).; assay type: functional
[22] = biological target: T1, High affinity choline transporter 1 (Homo sapiens, UniProt Q9GZV3); experiment: CHT choline uptake inhibitors, dose response, cell-based, HEK-293 hCHT, [3H]-choline uptake (AID 652177); assay type: functional
T1 sequence (Q9GZV3 whole entry): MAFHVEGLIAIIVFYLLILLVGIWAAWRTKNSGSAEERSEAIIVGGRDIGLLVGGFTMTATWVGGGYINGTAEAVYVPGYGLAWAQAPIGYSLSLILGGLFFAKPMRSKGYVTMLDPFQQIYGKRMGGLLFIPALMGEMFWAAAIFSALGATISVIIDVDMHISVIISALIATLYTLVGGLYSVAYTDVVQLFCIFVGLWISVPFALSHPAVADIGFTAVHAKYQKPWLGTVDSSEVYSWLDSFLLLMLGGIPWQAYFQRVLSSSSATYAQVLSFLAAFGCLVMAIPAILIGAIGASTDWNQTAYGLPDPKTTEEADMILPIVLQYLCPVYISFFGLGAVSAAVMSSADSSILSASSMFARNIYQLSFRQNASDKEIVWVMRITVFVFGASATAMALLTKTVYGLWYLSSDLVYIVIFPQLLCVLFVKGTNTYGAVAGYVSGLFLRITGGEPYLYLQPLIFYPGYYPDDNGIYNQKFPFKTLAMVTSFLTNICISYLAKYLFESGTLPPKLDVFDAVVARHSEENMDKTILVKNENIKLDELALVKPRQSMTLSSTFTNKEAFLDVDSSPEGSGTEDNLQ

Sequence of NS3 (A3EZJ3 whole entry): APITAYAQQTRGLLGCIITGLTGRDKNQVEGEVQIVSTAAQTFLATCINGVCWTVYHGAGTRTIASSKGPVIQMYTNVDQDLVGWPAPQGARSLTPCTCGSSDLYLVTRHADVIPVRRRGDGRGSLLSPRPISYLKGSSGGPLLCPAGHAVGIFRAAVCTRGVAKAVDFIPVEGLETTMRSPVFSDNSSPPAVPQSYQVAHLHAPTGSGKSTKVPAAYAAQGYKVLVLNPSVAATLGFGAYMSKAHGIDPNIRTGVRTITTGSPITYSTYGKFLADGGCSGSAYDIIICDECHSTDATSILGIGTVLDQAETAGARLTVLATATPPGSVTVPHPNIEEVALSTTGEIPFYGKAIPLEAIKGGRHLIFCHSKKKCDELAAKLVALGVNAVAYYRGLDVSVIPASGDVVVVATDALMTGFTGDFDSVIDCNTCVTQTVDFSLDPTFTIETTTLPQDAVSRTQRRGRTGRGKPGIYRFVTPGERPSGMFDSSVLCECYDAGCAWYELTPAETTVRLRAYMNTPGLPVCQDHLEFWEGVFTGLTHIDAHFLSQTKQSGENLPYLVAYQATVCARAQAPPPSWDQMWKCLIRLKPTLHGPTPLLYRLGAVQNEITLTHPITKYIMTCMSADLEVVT

## CO[C@H]1CN(C)C(=O)c2ccc(NC(=O)c3ccc(-c4ccccc4)cc3)cc2OC[C@H](C)NC[C@H]1C
[1]
  AC50: 32.2 µM (active)
[2]
  AC50: > 52 µM (inactive)
[3]
  AC50: 33.9 µM (active)

## CCCC#Cc1ccc2c(c1)O[C@@H](CN(C)S(=O)(=O)c1cccc(F)c1)[C@@H](C)CN([C@H](C)CO)S2(=O)=O
[4]
  AC50: 10.8 µM (active)
[5]
  AC50: 7.8 µM (active)
[6]
  AC50: 12.4 µM (active)

## Cc1cccc(-c2ccc([C@H]3[C@H](CO)N4CCCCN(Cc5cccnc5)C[C@@H]34)cc2)c1
[7]
  AC50: 17.9 µM (active)
[8]
  AC50: 0.259 µM (active)

## NS(=O)(=O)c1ccc(NC2=CC(=O)c3ccccc3C2=O)cc1
[9]
  AC50: 1.23 µM (active)
[10]
  AC50: 0.703 µM (active)
[11]
  AC50: 0.751 µM (active)
[12]
  AC50: 0.703 µM (active)
[13]
  AC50: 0.0771 µM (active)
[14]
  AC50: > 70 µM (inactive)
[15]
  AC50: > 70 µM (inactive)
[16]
  AC50: 1.16 µM (active)
[17]
  AC50: 7.15 µM (active) and 7.63 µM (active)

## O=C1NC(=S)N(c2ccccc2)C(=O)/C1=C/c1ccc(-c2ccc(C(=O)O)c(Cl)c2)o1
[18]
  IC50: 96.9 µM (active)

## Cc1c(OCc2ccccc2)c(=O)ccn1CCNc1c2ccccc2nc2ccccc12
[19]
  IC50: 4 µM (active)

## O=c1c2cc([N+](=O)[O-])ccc2nc(CN2CCCNCC2)n1-c1ccccc1
[20]
  IC50: 0.94 µM (active)
[21]
  IC50: 2.48 µM (inconclusive)

## COc1ccc(C(=O)NCc2cc(C(C)C)no2)cc1OCCN1CCOCC1
[22]
  IC50: 6.12 µM (active)
